Source: patent US8987256B2, “Oxo-heterocyclic substituted carboxylic acid derivatives and the use thereof” (Bayer Intellectual Property GmbH, priority 2008, dated 2015)

Experiments:
[1] = tested on: saphenous artery rings; assay: Vasorelaxant effect in vitro (phenylephrine-contracted artery rings); parameters: species or system Rabbits; conditions: Oryctolagus cuniculus, concentration reducing phenylephrine-induced contraction by 50%
Description: Rabbits are anesthetized and sacrificed by intravenous injection of thiopental sodium (about 50 mg/kg) and exsanguinated. The saphenous artery is removed and divided into rings 3 mm wide. The rings are mounted singly on in each case a pair of triangular hooks open at the end and made of 0.3 mm-thick special wire (Remanium®). Each ring is placed under an initial tension in 5 ml organ baths with Krebs-Henseleit solution which is at 37° C., is gassed with carbogen and has the following composition: NaCl 119 mM; KCl 4.8 mM; CaCl2×2H2O 1 mM; MgSO4×7H2O 1.4 mM; KH2PO4 1.2 mM; NaHCO3 25 mM; glucose 10 mM; bovine serum albumin 0.001%. The force of contraction is detected with Statham UC2 cells, amplified and digitized via A/D converters (DAS-1802 HC, Keithley Instruments, Munich) and recorded in parallel on chart recorders. Contractions are induced by addition of phenylephrine.
After several (generally 4) control cycles, the substance to be investigated is added in each further run in increasing dosage, and the level of the contraction achieved under the influence of the test substance is compared with the level of the contraction reached in the last preceding run. The concentration necessary to reduce the contraction reached in the preceding control by 50% is calculated from this (IC50). The standard application volume is 5 μl. The proportion of DMSO in the bath solution corresponds to 0.1%.

[2] = target: T1, recombinant guanylate cyclase reporter cell line (Rattus norvegicus, UniProt P20595); assay: sGC-activating activity in the CHO reporter cell in vitro; type: cell-based
T1 construct: expressed in transfected cells; host or cells: CHO reporter cell line
T1 sequence (P20595 1-619): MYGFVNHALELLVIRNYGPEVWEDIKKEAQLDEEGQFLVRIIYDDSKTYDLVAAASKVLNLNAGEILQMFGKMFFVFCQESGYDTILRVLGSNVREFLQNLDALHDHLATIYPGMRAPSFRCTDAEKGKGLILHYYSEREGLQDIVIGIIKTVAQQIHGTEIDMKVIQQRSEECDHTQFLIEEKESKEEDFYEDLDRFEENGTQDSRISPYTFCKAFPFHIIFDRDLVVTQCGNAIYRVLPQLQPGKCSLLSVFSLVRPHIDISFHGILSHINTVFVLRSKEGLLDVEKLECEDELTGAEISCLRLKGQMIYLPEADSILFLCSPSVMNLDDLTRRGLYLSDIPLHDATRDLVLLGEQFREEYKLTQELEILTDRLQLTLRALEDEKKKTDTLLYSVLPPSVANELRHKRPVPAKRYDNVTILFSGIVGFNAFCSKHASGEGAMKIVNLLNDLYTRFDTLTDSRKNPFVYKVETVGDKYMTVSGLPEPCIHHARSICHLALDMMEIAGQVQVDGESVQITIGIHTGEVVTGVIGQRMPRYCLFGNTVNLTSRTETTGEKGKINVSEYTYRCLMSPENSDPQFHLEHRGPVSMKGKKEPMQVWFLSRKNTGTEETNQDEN
T1 sequence (P19686 1-690 partner): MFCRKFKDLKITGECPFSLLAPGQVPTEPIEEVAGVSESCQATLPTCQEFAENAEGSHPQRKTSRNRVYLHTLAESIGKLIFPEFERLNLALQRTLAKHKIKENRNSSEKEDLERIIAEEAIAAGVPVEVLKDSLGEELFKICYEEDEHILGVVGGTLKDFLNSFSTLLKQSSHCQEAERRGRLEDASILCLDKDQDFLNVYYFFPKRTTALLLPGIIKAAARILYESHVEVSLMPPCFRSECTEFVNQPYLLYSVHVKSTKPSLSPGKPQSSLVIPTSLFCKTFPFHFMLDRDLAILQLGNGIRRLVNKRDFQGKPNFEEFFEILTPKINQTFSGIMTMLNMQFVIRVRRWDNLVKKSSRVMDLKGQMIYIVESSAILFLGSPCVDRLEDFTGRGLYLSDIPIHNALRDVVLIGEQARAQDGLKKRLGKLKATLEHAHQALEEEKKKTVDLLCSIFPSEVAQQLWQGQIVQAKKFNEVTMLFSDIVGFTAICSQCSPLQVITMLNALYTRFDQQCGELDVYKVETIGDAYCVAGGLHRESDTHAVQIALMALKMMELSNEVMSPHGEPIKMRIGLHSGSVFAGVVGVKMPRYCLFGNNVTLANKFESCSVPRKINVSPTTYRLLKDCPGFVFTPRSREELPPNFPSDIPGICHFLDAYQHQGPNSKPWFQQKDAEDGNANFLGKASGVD
Description: The cellular action of the compounds according to the invention is determined at a recombinant guanylate cyclase reporter cell line, as described in F. Wunder et al., Anal. Biochem. 339, 104-112 (2005).

[3] = target: T2, soluble guanylate cyclase (sGC) (Rattus norvegicus, UniProt P20595); assay: Activating action at the sGC enzyme in vitro (PPi detection, luciferase); type: biochemical; conditions: for EC50: read-out: EC50 (concentration at 50% of maximum efficacy), activating action at the sGC enzyme
T2 construct: made in house; host or cells: baculovirus/Sf9 insect cells
T2 sequence (P20595 1-619): T1 sequence (P20595 1-619)
T2 sequence (P19686 1-690 partner): T1 sequence (P19686 1-690 partner)
Description: Soluble guanylate cyclase (sGC) converts on stimulation GTP into cGMP and pyrophosphate (PPi). PPi is detected with the aid of the assay described below. The signal produced in the assay increases as the reaction progresses and serves as a measure of the sGC enzyme activity under the given stimulation.
To carry out the assay, 29 μl of enzyme solution [0-10 nM soluble guanylate cyclase (prepared according to Honicka et al., J. Mol. Med. 77, 14-23 (1999)) in 50 mM TEA, 2 mM MgCl2, 0.1% BSA (fraction V), 0.005% Brij®, pH 7.5] are initially introduced into a microplate, and 1 μl of the substance to be tested (as a serially diluted solution in DMSO) is added. The mixture is incubated at room temperature for 10 min. Then 20 μl of detection mix [1.2 nM Firefly Luciferase (Photinus pyralis luciferase, Promega), 29 μM dehydroluciferin (prepared according to Bitler & McElroy, Arch. Biochem. Biophys. 72, 358 (1957)), 122 μM luciferin (Promega), 153 μM ATP (Sigma) and 0.4 mM DTT (Sigma) in 50 mM TEA, 2 mM MgCl2, 0.1% BSA (fraction V), 0.005% Brij®, pH 7.5] are added. The enzyme reaction is started by adding 20 μl of substrate solution [1.25 mM guanosine 5′-triphosphate (Sigma) in 50 mM TEA, 2 mM MgCl2, 0.1% BSA (fraction V), 0.005% Brij®, pH 7.5] and measured continuously in a luminometer. The extent of the stimulation by the substance to be tested can be determined relative to the signal of the unstimulated reaction.
The activation of heme-free guanylate cyclase is examined by addition of 25 μM of 1H-1,2,4-oxadiazolo[4,3-a]quinoxalin-1-one (ODQ) to the enzyme solution and subsequent incubation for 30 minutes and compared to the stimulation of the native enzyme.

Row | SMILES | IC50 [1] | MEC (minimum effective concentration), sGC-activating activity in the CHO reporter cell [2] | MEC (minimum effective concentration), activating action at the sGC enzyme [3] | EC50 [3]
1 | CCC(C)C(C(=O)Nc1cccc2c1CC(C)(C(=O)O)C2)c1ccc(CN2N=C(c3ccccc3)OCC2=O)cc1 (single isomer, unassigned) [Example 86, 2-Methyl-4-[(3-methyl-2-{4-[(5-oxo-2-phenyl-5,6-dihydro-4H-1,3,4-oxadiazin-4-yl)methyl]-phenyl}pentanoyl)amino]-2,3-dihydro-1H-indene-2-carboxylic acid] | 180 nM | 1 nM | 1.4 nM | 73 nM
2 | Cc1c(CCC(=O)O)cccc1NC(=O)C(c1ccc(CN2N=C(c3ccccc3)OCC2=O)cc1)C1CCCC1 (single isomer, unassigned) [Example 115, 3-{3-[(cyclopcntyl{4-[(5-oxo-2-phcnyl-5,6-dihydro-4H-1,3,4-oxadiazin-4-yl)mcthyl]phcnyl}acetyl)amino]-2-mcthylphcnyl}propanoic acid] | 163 nM | 3 nM | 1.6 nM | 40 nM
3 | O=C(O)C1Cc2cccc(NC(=O)C(c3ccc(CN4N=C(c5ccccc5)OCC4=O)cc3)C3CCCC3)c2C1 (single isomer, unassigned) [Example 126, 4-[(cyclopcntyl{4-[(5-oxo-2-phcnyl-5,6-dihydro-4H-1,3,4-oxadiazin-4-yl)mcthyl]phcnyl}acetyl)amino]-2,3-dihydro-1H-indenc-2-carboxylic acid] | 145 nM | 30 nM | 10 nM | 320 nM
4 | CC(C(C(=O)Nc1cc(CCC(=O)O)ccc1F)c1ccc(CN2N=C(c3ccccc3)OCC2=O)cc1)C(F)(F)F (stereo not drawn) [Example 185, 3-{4-fluoro-3-[(4,4,4-trifluoro-3-methyl-2-{4-[(5-oxo-2-phenyl-5,6-dihydro-4H-1,3,4-oxadiazin-4-yl)methyl]-phenyl}butanoyl)amino]phenyl}propanoic acid] | 64 nM | 0.3 nM |  | 

Continued by falling IC50 [1], values first:

Row | IC50 [1] | MEC (minimum effective concentration), sGC-activating activity in the CHO reporter cell [2] | MEC (minimum effective concentration), activating action at the sGC enzyme [3] | EC50 [3] | SMILES
5 | 625 nM | 1 nM | 0.4 nM | 24 nM | CCC(C)C(C(=O)Nc1cccc(CCC(=O)O)c1C)c1ccc(CN2N=C(c3ccccc3)OCC2=O)cc1 (single isomer, unassigned) [Example 77, 3-{2-Methyl-3-[(3-methyl-2-{4-[(5-oxo-2-phenyl-5,6-dihydro-4H-1,3,4-oxadiazin-4-yl)methyl]phenyl}pentanoyl)amino]phenyl}propanoic acid]
6 | 345 nM | 3 nM |  |  | CCC(C)C(C(=O)Nc1cccc(CC(C)(C)C(=O)O)c1)c1ccc(CN2N=C(c3ccccc3)OCC2=O)cc1 (stereo not drawn) [Example 143, 2,2-dimethyl-3-{3-[(3-methyl-2-{4-[(5-oxo-2-phenyl-5,6-dihydro-4H-1,3,4-oxadiazin-4-yl)methyl]phenyl}-pentanoyl)amino]phenyl}propanoic acid]
7 | 110 nM | 3 nM | 4.1 nM | 130 nM | CC1(C(=O)O)Cc2cccc(NC(=O)C(c3ccc(CN4N=C(c5ccccc5)OCC4=O)cc3)C3CCCC3)c2C1 (single isomer, unassigned) [Example 46, 4-[(Cyclopentyl{4-[(5-oxo-2-phenyl-5,6-dihydro-4H-1,3,4-oxadiazin-4-yl)methyl]phenyl}-acetyl)amino]-2-methyl-2,3-dihydro-1H-indene-2-carboxylic acid]
